Measurements taken from the NIST ThermoML archive (doi:10.1021/acs.jced.6b00181).

Assay: xn = mol fraction of the nth substance listed
Settings: Liquid, Other PVT measurement

C=CC [propene] + CCCCCC
Settings	mass density [kg/m3]
294.9 K, 1200 kPa, x1 = 0.9003	515.1
294.9 K, 1800 kPa, x1 = 0.9003	516.8
294.9 K, 2800 kPa, x1 = 0.9003	519
294.9 K, 3300 kPa, x1 = 0.9003	520.8
294.9 K, 4400 kPa, x1 = 0.9003	523.3
294.9 K, 10300 kPa, x1 = 0.9003	535.5
294.9 K, 17100 kPa, x1 = 0.9003	547.5
294.9 K, 24100 kPa, x1 = 0.9003	557.1
294.9 K, 30800 kPa, x1 = 0.9003	565.9
294.9 K, 37800 kPa, x1 = 0.9003	573.2
294.9 K, 44200 kPa, x1 = 0.9003	580.2
294.9 K, 51200 kPa, x1 = 0.9003	587.4
294.9 K, 55000 kPa, x1 = 0.9003	591.5
294.9 K, 58300 kPa, x1 = 0.9003	593.8
294.9 K, 67300 kPa, x1 = 0.9003	601.9
295 K, 1400 kPa, x1 = 0.606	568
295 K, 5200 kPa, x1 = 0.606	574.6
295 K, 6800 kPa, x1 = 0.606	577
295 K, 10300 kPa, x1 = 0.606	582.2
295 K, 17200 kPa, x1 = 0.606	592
295 K, 23900 kPa, x1 = 0.606	600
295 K, 30600 kPa, x1 = 0.606	606.9
295 K, 37500 kPa, x1 = 0.606	613.5
295 K, 44500 kPa, x1 = 0.606	619.4
295 K, 51100 kPa, x1 = 0.606	624.9
295 K, 57900 kPa, x1 = 0.606	630
295 K, 63100 kPa, x1 = 0.606	634.3
295 K, 66800 kPa, x1 = 0.606	636.7
295.3 K, 500 kPa, x1 = 0.4466	592.6
295.3 K, 700 kPa, x1 = 0.4466	594.3
295.3 K, 1400 kPa, x1 = 0.4466	595.1
295.3 K, 2100 kPa, x1 = 0.4466	596.8
295.3 K, 2800 kPa, x1 = 0.4466	597.6
295.3 K, 3700 kPa, x1 = 0.4466	598.9
295.3 K, 4800 kPa, x1 = 0.4466	600.6
295.3 K, 6800 kPa, x1 = 0.4466	603.6
295.3 K, 10200 kPa, x1 = 0.4466	607.9
295.3 K, 16900 kPa, x1 = 0.4466	615.3
295.3 K, 24100 kPa, x1 = 0.4466	622.5
295.3 K, 30900 kPa, x1 = 0.4466	629
295.3 K, 38100 kPa, x1 = 0.4466	634.6
295.3 K, 44500 kPa, x1 = 0.4466	640.3
295.3 K, 51600 kPa, x1 = 0.4466	646.2
295.3 K, 58300 kPa, x1 = 0.4466	651.1
295.3 K, 63000 kPa, x1 = 0.4466	654.6
295.3 K, 66500 kPa, x1 = 0.4466	657.1
295.6 K, 700 kPa, x1 = 0.1414	638.3
295.6 K, 1300 kPa, x1 = 0.1414	639.2
295.6 K, 1700 kPa, x1 = 0.8985	516.2
295.6 K, 1900 kPa, x1 = 0.8985	518.5
295.6 K, 2600 kPa, x1 = 0.8985	518.5
295.6 K, 3500 kPa, x1 = 0.1414	642
295.6 K, 3600 kPa, x1 = 0.8985	522.1
295.6 K, 4900 kPa, x1 = 0.8985	524.5
295.6 K, 7000 kPa, x1 = 0.8985	528.5
295.6 K, 8200 kPa, x1 = 0.1414	646.8
295.6 K, 8500 kPa, x1 = 0.8985	532.3
295.6 K, 10100 kPa, x1 = 0.8985	535.7
295.6 K, 10500 kPa, x1 = 0.8985	535.7
295.6 K, 10700 kPa, x1 = 0.1414	649.7
295.6 K, 13800 kPa, x1 = 0.8985	541.2
295.6 K, 14900 kPa, x1 = 0.1414	653.6
295.6 K, 16700 kPa, x1 = 0.8985	546.4
295.6 K, 17200 kPa, x1 = 0.8985	546.4
295.6 K, 20700 kPa, x1 = 0.1414	659.5
295.6 K, 23200 kPa, x1 = 0.8985	555.2
295.6 K, 24000 kPa, x1 = 0.1414	662.5
295.6 K, 27200 kPa, x1 = 0.1414	665.6
295.6 K, 29100 kPa, x1 = 0.8985	562.8
295.6 K, 30800 kPa, x1 = 0.1414	668.6
295.6 K, 34400 kPa, x1 = 0.8985	568.4
295.6 K, 37100 kPa, x1 = 0.1414	673.8
295.6 K, 38100 kPa, x1 = 0.8985	573.9
295.6 K, 41000 kPa, x1 = 0.8985	576.4
295.6 K, 42700 kPa, x1 = 0.1414	678.5
295.6 K, 44800 kPa, x1 = 0.8985	581.2
295.6 K, 47800 kPa, x1 = 0.1414	682.2
295.6 K, 48000 kPa, x1 = 0.1414	682.8
295.6 K, 48200 kPa, x1 = 0.1414	682.8
295.6 K, 48200 kPa, x1 = 0.8985	584.2
295.6 K, 48300 kPa, x1 = 0.1414	682.8
295.6 K, 51600 kPa, x1 = 0.8985	588
295.6 K, 52000 kPa, x1 = 0.1414	685.5
295.6 K, 54900 kPa, x1 = 0.8985	590.4
295.6 K, 55300 kPa, x1 = 0.1414	688.2
295.6 K, 55600 kPa, x1 = 0.1414	688.2
295.6 K, 58000 kPa, x1 = 0.1414	689.8
295.6 K, 58400 kPa, x1 = 0.8985	594.2
295.6 K, 61800 kPa, x1 = 0.8985	596.6
295.6 K, 61900 kPa, x1 = 0.1414	692.5
295.6 K, 66100 kPa, x1 = 0.1414	695.3
295.6 K, 66200 kPa, x1 = 0.1414	695.3
295.6 K, 67300 kPa, x1 = 0.8985	601.4
324.4 K, 900 kPa, x1 = 0.4466	560.3
324.4 K, 1400 kPa, x1 = 0.4466	561.7
324.4 K, 1900 kPa, x1 = 0.4466	562.5
324.4 K, 2100 kPa, x1 = 0.4466	563.2
324.4 K, 3400 kPa, x1 = 0.4466	565.5
324.4 K, 4900 kPa, x1 = 0.4466	568.9
324.4 K, 6800 kPa, x1 = 0.4466	571.9
324.4 K, 10200 kPa, x1 = 0.4466	577.8
324.4 K, 17200 kPa, x1 = 0.4466	588.5
324.4 K, 23800 kPa, x1 = 0.4466	597.6
324.4 K, 30700 kPa, x1 = 0.4466	606.1
324.4 K, 37800 kPa, x1 = 0.4466	614
324.4 K, 44700 kPa, x1 = 0.4466	620.3
324.4 K, 51400 kPa, x1 = 0.4466	626.2
324.4 K, 58300 kPa, x1 = 0.4466	631.8
324.4 K, 63700 kPa, x1 = 0.4466	636
324.4 K, 67500 kPa, x1 = 0.4466	638.9
324.6 K, 700 kPa, x1 = 0.1414	611.8
324.6 K, 1200 kPa, x1 = 0.1414	612.7
324.6 K, 1300 kPa, x1 = 0.606	533.2
324.6 K, 1800 kPa, x1 = 0.606	534.5
324.6 K, 1900 kPa, x1 = 0.1414	614
324.6 K, 2500 kPa, x1 = 0.606	536.2
324.6 K, 3400 kPa, x1 = 0.606	538.3
324.6 K, 3600 kPa, x1 = 0.1414	616.6
324.6 K, 5000 kPa, x1 = 0.1414	618.8
324.6 K, 5300 kPa, x1 = 0.606	542.5
324.6 K, 6800 kPa, x1 = 0.606	545.6
324.6 K, 7100 kPa, x1 = 0.1414	621.9
324.6 K, 8900 kPa, x1 = 0.1414	624.1
324.6 K, 9600 kPa, x1 = 0.1414	625.5
324.6 K, 10300 kPa, x1 = 0.1414	625.9
324.6 K, 10300 kPa, x1 = 0.606	552.4
324.6 K, 12300 kPa, x1 = 0.1414	628.6
324.6 K, 13600 kPa, x1 = 0.1414	630
324.6 K, 17100 kPa, x1 = 0.1414	634.1
324.6 K, 17400 kPa, x1 = 0.606	564.6
324.6 K, 19700 kPa, x1 = 0.1414	637.3
324.6 K, 23900 kPa, x1 = 0.606	573.8
324.6 K, 24100 kPa, x1 = 0.1414	642
324.6 K, 27400 kPa, x1 = 0.1414	644.9
324.6 K, 30700 kPa, x1 = 0.1414	648.2
324.6 K, 30700 kPa, x1 = 0.606	583.4
324.6 K, 34300 kPa, x1 = 0.1414	651.6
324.6 K, 37500 kPa, x1 = 0.1414	654.6
324.6 K, 37900 kPa, x1 = 0.606	592.4
324.6 K, 44300 kPa, x1 = 0.1414	660.5
324.6 K, 44400 kPa, x1 = 0.606	599.1
324.6 K, 47800 kPa, x1 = 0.1414	663.5
324.6 K, 51300 kPa, x1 = 0.1414	666.6
324.6 K, 51400 kPa, x1 = 0.606	606.4
324.6 K, 55200 kPa, x1 = 0.1414	669.7
324.6 K, 58100 kPa, x1 = 0.606	612.2
324.6 K, 58400 kPa, x1 = 0.1414	672.2
324.6 K, 62700 kPa, x1 = 0.1414	675.4
324.6 K, 63000 kPa, x1 = 0.606	616.2
324.6 K, 66500 kPa, x1 = 0.1414	678.5
324.6 K, 67200 kPa, x1 = 0.606	619.4
325.1 K, 2100 kPa, x1 = 0.9003	470.3
325.1 K, 2800 kPa, x1 = 0.9003	473.5
325.1 K, 3700 kPa, x1 = 0.9003	476.8
325.1 K, 7000 kPa, x1 = 0.9003	489.5
325.1 K, 10400 kPa, x1 = 0.9003	499.8
325.1 K, 16500 kPa, x1 = 0.9003	515.1
325.1 K, 24000 kPa, x1 = 0.9003	530.6
325.1 K, 30900 kPa, x1 = 0.9003	542.4
325.1 K, 37500 kPa, x1 = 0.9003	551.5
325.1 K, 44500 kPa, x1 = 0.9003	559.6
325.1 K, 51500 kPa, x1 = 0.9003	567.6
325.1 K, 58300 kPa, x1 = 0.9003	574.5
325.1 K, 63700 kPa, x1 = 0.9003	580.2
325.1 K, 67200 kPa, x1 = 0.9003	583.3
325.5 K, 2400 kPa, x1 = 0.8985	471.9
325.5 K, 2800 kPa, x1 = 0.8985	474.2
325.5 K, 3500 kPa, x1 = 0.8985	476.7
325.5 K, 4700 kPa, x1 = 0.8985	481.2
